Results from patent publication US4331670A (priority 1979, dated 1982).
≈ marks a conversion by molar mass, not a printed value.

How the values were obtained:
Pyricularia orzae = assay: whole plant or invertebrate; type: in vivo, Pyricularia orzae (rice plant, Chukyo Asahi); conditions: in Oryza sativa, 120 h, read-out: Protective value
Rhizoctonia solani = assay: whole plant or invertebrate; type: in vivo, Rhizoctonia solani (rice plant, Chukyo Asahi); conditions: in Oryza sativa, 120 h, read-out: Preventive value
[1] = tested on: Collectotrichum lagenarium; assay: Test 3: protective value on cucumber inoculated with Collectotrichum lagenarium; type: in vivo, Collectotrichum lagenarium (cucumber plant, Suyo); conditions: 500 ppm, 10 ml sprayed; lesions six days after inoculation
Procedure: In each unglazed pot having a diameter of 9 cm, cucumber plant (Suyo) was cultured. At one leaf stage, 10 ml. of each solution of each active ingredient having a concentration of 500 ppm was sprayed by a spray gun. After maintaining the pot in a green-house at 24° to 25° C. for one day, each spore suspension of Collectotrichum lagenarium was sprayed. Six days after the inoculation, number of lesions on the first leaf of seedling was observed. The protective value was calculated as Test 1.

Sphaerotheca fuliginea = assay: whole plant or invertebrate; type: in vivo, Sphaerotheca fuliginea (cucumber plant, Suyo); conditions: Podosphaera fuliginea, in Cucumis sativus, 240 h; read-out: Protective value
Phytophthora infestans = type: cell-based; conditions: PDA medium; fungus A: Phytophthora infestans
Alternaria solani = assay: Test 5: minimum growth inhibition concentration on PDA medium; type: cell-based; conditions: fungus C: Alternaria solani
Procedure: (§1) A mixture of 9 ml. of a potato-glucose-agar medium (PDA medium) and 1 ml. of each active ingredient was poured into each Petri-dish to be solidified. […] The following fungi were used.

Diaporthe citri = assay: as above; type: cell-based; conditions: fungus B: Diaporthe citri
Procedure: as §1

Venturia inaequalie = assay: as above; type: cell-based; conditions: fungus D: Venturia inaequalie
Procedure: as §1

Botrytis cinerea = assay: Test 9: protective value on cucumber inoculated with Botrytis cinerea; type: in vivo, Botrytis cinerea (cucumber plant, Suyo); conditions: 72 h; for pest or weed control at 250 ppm: 10 ml sprayed, lesion length three days after inoculation
In short: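 Cucumber at one-leaf stage sprayed with active ingredient at 250 ppm, kept in a greenhouse at 24–25 °C for one day, then inoculated with a PDA-grown Botrytis cinerea agar disc. Lesion length measured 3 days after inoculation and converted to protective value; some comparisons used lower concentrations.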

Plasmopara viticola = assay: whole plant or invertebrate; type: in vivo, Plasmopara viticola (cucumber plant, Suyo); conditions: in Cucumis sativus, 144 h, read-out: Protective value
Plutella xylostella = assay: Test 11: mortality of larvae of Plutella xylostella on treated cabbage leaf; type: in vivo; conditions: foliar, 192 h, leaf dipped, emulsifiable concentrate Composition No. 3, eight days, read-out: Percent mortality
Excerpt: Each emulsifiable concentrate of each active ingredient as Composition No. 3 was dispersed in water at a concentration of 800 ppm. Each leaf of cabbage was dipped into each emulsion for about 10 seconds and taken up and dried in air.
A wet filter paper was put in each Petri dish (diameter of 9 cm), and each treated leaf was put on the filter paper. Larvae of Plutella xylostella at 2nd to 3rd instar were charged and the dish was covered with a cap and kept in a constant temperature chamber with lighting at 28° C. Eight days after the charge, mortality was measured and each percent mortality was calculated.

[2] = tested on: Aspergillum flavus IFO 6343; assay: Test 8: MIC by agar dilution process; type: cell-based; conditions: 168 h; Sabouraud's agar medium; 1 week
Procedure: (§2) Each minimum growth inhibition concentration (MIC) of Compound No. 16 to various microorganisms was measured by the agar dilution process. In the cases of bacteria, the results were observed 24 hours after the inoculation and in the cases of fungi, the results were observed 1 week after the inoculation.

[3] = tested on: Aspergillum fumigatus IFO 4057; assay: Test 8: MIC by agar dilution process; type: cell-based; conditions: 168 h; Sabouraud's agar medium; 1 week
Procedure: as §2

[4] = tested on: Aspergillum niger IFO 6341; assay: Test 8: MIC by agar dilution process; type: cell-based; conditions: 168 h; Sabouraud's agar medium; 1 week
Procedure: as §2

[5] = tested on: Aureobasidium pullulans IFO 6353; assay: Test 8: MIC by agar dilution process; type: cell-based; conditions: IFO6353, 168 h, Sabouraud's agar medium, 1 week
Procedure: as §2

Bacillus subtilis PC1219 = assay: Test 8: MIC by agar dilution process; type: cell-based; conditions: Bouillon agar medium, 24 hours
Procedure: as §2

[6] = tested on: Chaetomium globosum IFO 6347; assay: Test 8: MIC by agar dilution process; type: cell-based; conditions: IFO6347, 168 h, Sabouraud's agar medium, 1 week
Procedure: as §2

Escherichia coli = assay: Test 8: MIC by agar dilution process; type: cell-based; conditions: Bouillon agar medium, 24 hours
Procedure: as §2

[7] = tested on: Gibberella fujikuroi IFO 6349; assay: Test 8: MIC by agar dilution process; type: cell-based; conditions: Fusarium fujikuroi, IFO6349, 168 h; Sabouraud's agar medium; 1 week
Procedure: as §2

[8] = tested on: Gliocladium virens IFO 9166; assay: Test 8: MIC by agar dilution process; type: cell-based; conditions: Trichoderma virens, IFO9166, 168 h; Sabouraud's agar medium; 1 week
Procedure: as §2

[9] = tested on: Klebsiella pneumoniae IFO 3512; assay: Test 8: MIC by agar dilution process; type: cell-based; conditions: IFO3512, Bouillon agar medium, 24 hours
Procedure: as §2

[10] = tested on: Myrothecium verrucaria IFO 6133; assay: Test 8: MIC by agar dilution process; type: cell-based; conditions: Albifimbria verrucaria, IFO6133, 168 h; Sabouraud's agar medium; 1 week
Procedure: as §2

[11] = tested on: Penicillium chrysogeum IFO 4626; assay: Test 8: MIC by agar dilution process; type: cell-based; conditions: IFO4626, 168 h, Sabouraud's agar medium, 1 week
Procedure: as §2

[12] = tested on: Penicillium citrium IFO 6352; assay: Test 8: MIC by agar dilution process; type: cell-based; conditions: IFO6352, 168 h, Sabouraud's agar medium, 1 week
Procedure: as §2

[13] = tested on: Penicillium funiculosum IFO 6354; assay: Test 8: MIC by agar dilution process; type: cell-based; conditions: Talaromyces funiculosus, IFO6354, 168 h; Sabouraud's agar medium; 1 week
Procedure: as §2

Penicillium italicum = assay: Test 8: MIC by agar dilution process; type: cell-based; conditions: 168 h, Sabouraud's agar medium, 1 week
Procedure: as §2

[14] = tested on: Proteus morganii IFO 3848; assay: Test 8: MIC by agar dilution process; type: cell-based; conditions: Morganella morganii, IFO3848; Bouillon agar medium; 24 hours
Procedure: as §2

Pseudomonas aeruginosa = assay: Test 8: MIC by agar dilution process; type: cell-based; conditions: Bouillon agar medium, 24 hours
Procedure: as §2

[15] = tested on: Salmonella typhimurium IFO 12529; assay: Test 8: MIC by agar dilution process; type: cell-based; conditions: Salmonella enterica; Bouillon agar medium; 24 hours
Procedure: as §2

[16] = tested on: Serratia marcescens IFO 12648; assay: Test 8: MIC by agar dilution process; type: cell-based; conditions: IFO12648, Bouillon agar medium, 24 hours
Procedure: as §2

[17] = tested on: Staphylococcus aureus 209P; assay: Test 8: MIC by agar dilution process; type: cell-based; conditions: Bouillon agar medium, 24 hours
Procedure: as §2

Trametes sanguinea = assay: Test 8: MIC by agar dilution process; type: cell-based; conditions: 168 h, Sabouraud's agar medium, 1 week
Procedure: as §2

Question: For `O=[N+]([O-])c1cc(C(F)(F)F)c(Cl)c([N+](=O)[O-])c1Nc1ncc(C(F)(F)F)cc1Cl` [Compound No. 7, N-(3-chloro-5-trifluoromethyl-2-pyridyl)-2,6-dinitro-3-chloro-4-trifluoromethylaniline], which pest or weed control at 12.5 ppm (Pyricularia orzae) is on record?
Answer: 98%

Question: And the pest or weed control at 25 ppm (Pyricularia orzae)?
Answer: 100%

Question: And the pest or weed control at 100 ppm (Pyricularia orzae)?
Answer: 100%

Question: And the pest or weed control at 100 ppm (Rhizoctonia solani)?
Answer: 100%

Question: And the Protective value [1]?
Answer: 100%

Question: And the pest or weed control at 500 ppm (Sphaerotheca fuliginea)?
Answer: 100%

Question: What about the “minimum growth inhibition concentration” value (Phytophthora infestans) of the same compound?
Answer: 100

Question: And the “minimum growth inhibition concentration” value (Alternaria solani)?
Answer: < 1

Question: What about the “minimum growth inhibition concentration” value (Diaporthe citri) of the same compound?
Answer: < 1

Question: What about the “minimum growth inhibition concentration” value (Venturia inaequalie) of the same compound?
Answer: < 1

Question: And the pest or weed control at 62.5 ppm (Botrytis cinerea; 62.5 ppm)?
Answer: 100%

Question: And the pest or weed control at 250 ppm (Botrytis cinerea)?
Answer: 100%

Question: And the pest or weed control at 500 ppm (Plasmopara viticola)?
Answer: 100%

Question: And the mortality at 800 ppm (Plutella xylostella)?
Answer: 100%

Question: What does the source list for `O=[N+]([O-])c1cc(C(F)(F)F)c(Cl)c([N+](=O)[O-])c1Nc1c(Cl)cncc1Cl` [Compound No. 16]?
Answer: pest or weed control at 100 ppm (Pyricularia orzae): 100%; pest or weed control at 100 ppm (Rhizoctonia solani): 100%; pest or weed control at 500 ppm (Sphaerotheca fuliginea): 100%; MIC [2]: 6.25 µg/mL (≈ 14.5 µM); MIC [3]: 6.25 µg/mL (≈ 14.5 µM); MIC [4]: 3.12 µg/mL (≈ 7.23 µM); MIC [5]: 6.25 µg/mL (≈ 14.5 µM); MIC (Bacillus subtilis PC1219): < 0.2 µg/mL; MIC [6]: 3.12 µg/mL (≈ 7.23 µM); MIC (Escherichia coli): 12.5 µg/mL (≈ 29 µM); MIC [7]: 12.5 µg/mL (≈ 29 µM); MIC [8]: 12.5 µg/mL (≈ 29 µM); MIC [9]: 12.5 µg/mL (≈ 29 µM); MIC [10]: 6.25 µg/mL (≈ 14.5 µM); MIC [11]: 3.12 µg/mL (≈ 7.23 µM); MIC [12]: 6.25 µg/mL (≈ 14.5 µM); MIC [13]: 6.25 µg/mL (≈ 14.5 µM); MIC (Penicillium italicum): 3.12 µg/mL (≈ 7.23 µM); MIC [14]: 6.25 µg/mL (≈ 14.5 µM); MIC (Pseudomonas aeruginosa): 12.5 µg/mL (≈ 29 µM); MIC [15]: 6.25 µg/mL (≈ 14.5 µM); MIC [16]: 6.25 µg/mL (≈ 14.5 µM); MIC [17]: < 0.2 µg/mL; MIC (Trametes sanguinea): 6.25 µg/mL (≈ 14.5 µM); pest or weed control at 250 ppm (Botrytis cinerea): 100%
